Results taken from ChEMBL document CHEMBL5696441 (Nat Chem Biol, 2011).

Key:
[1] = test system: Tyrosine-protein kinase ABL1 (Homo sapiens), P00519 [M351T]; experiment: Inhibition of human ABL1 M351T mutant assessed as residual activity at 1 uM using Poly(Ala,Glu,Lys,Tyr)6:2:5:1 as substrate in presence of 33P-ATP by ProQinase assay relative to control
[2] = molecular target: MAP/microtubule affinity-regulating kinase 3 (Homo sapiens) (UniProt P27448); experiment: Inhibition of human MARK3 assessed as residual activity at 1 uM using RBER-CHKtide as substrate in presence of 33P-ATP by ProQinase assay relative to control
[3] = molecular target: Calcium/calmodulin-dependent protein kinase type II subunit gamma (Homo sapiens) (UniProt Q13555); experiment: Inhibition of CAMK2G (unknown origin) assessed as remaining activity at 1 uM by Kinome scan method relative to control
[4] = molecular target: T1, Serine/threonine-protein kinase PLK4 (Homo sapiens) (UniProt O00444); experiment: Inhibition of human SAK assessed as residual activity at 1 uM using p38-alpha KA as substrate in presence of 33P-ATP by ProQinase assay relative to control
T1 sequence (whole entry): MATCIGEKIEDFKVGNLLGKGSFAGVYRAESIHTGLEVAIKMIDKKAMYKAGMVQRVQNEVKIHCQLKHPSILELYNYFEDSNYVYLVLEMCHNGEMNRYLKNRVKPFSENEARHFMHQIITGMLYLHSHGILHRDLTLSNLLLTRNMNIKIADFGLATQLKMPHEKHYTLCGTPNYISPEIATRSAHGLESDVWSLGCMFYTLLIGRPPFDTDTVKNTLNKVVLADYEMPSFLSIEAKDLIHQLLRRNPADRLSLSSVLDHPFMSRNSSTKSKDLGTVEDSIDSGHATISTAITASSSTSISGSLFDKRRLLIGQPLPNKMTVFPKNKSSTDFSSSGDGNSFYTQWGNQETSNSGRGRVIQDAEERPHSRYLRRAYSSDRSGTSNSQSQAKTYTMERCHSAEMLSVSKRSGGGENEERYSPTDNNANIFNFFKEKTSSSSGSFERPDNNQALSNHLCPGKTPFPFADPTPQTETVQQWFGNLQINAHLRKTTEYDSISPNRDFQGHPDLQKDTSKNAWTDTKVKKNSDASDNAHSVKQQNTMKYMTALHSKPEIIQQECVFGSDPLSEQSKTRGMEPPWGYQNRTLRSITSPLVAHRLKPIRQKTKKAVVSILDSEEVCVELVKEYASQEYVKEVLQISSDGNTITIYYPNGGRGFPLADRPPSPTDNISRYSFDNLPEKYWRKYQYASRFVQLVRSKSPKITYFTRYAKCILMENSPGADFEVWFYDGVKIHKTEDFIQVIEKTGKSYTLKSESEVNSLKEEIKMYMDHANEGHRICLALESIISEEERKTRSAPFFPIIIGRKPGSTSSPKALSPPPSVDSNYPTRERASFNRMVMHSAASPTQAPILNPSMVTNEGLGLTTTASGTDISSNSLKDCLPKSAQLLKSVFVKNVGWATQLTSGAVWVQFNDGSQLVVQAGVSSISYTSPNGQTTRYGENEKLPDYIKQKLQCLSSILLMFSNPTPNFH

[5] = molecular target: Interferon-induced, double-stranded RNA-activated protein kinase (Homo sapiens) (UniProt P19525); experiment: Inhibition of human EIF2AK2 assessed as residual activity at 1 uM using RB-CTF as substrate in presence of 33P-ATP by ProQinase assay relative to control
[6] = molecular target: Dual specificity protein kinase CLK2 (Homo sapiens) (UniProt P49760); experiment: Inhibition of human CLK2 assessed as residual activity at 1 uM using RBER-GSK3 as substrate in presence of 33P-ATP by ProQinase assay relative to control
[7] = molecular target: Myosin light chain kinase 2, skeletal/cardiac muscle (Homo sapiens) (UniProt Q9H1R3); experiment: Inhibition of human MYLK2 assessed as residual activity at 1 uM using RB-S6P as substrate in presence of 33P-ATP by ProQinase assay relative to control
Chain of Myosin light chain kinase 2, skeletal/cardiac muscle (Homo sapiens) (Q9H1R3 whole entry): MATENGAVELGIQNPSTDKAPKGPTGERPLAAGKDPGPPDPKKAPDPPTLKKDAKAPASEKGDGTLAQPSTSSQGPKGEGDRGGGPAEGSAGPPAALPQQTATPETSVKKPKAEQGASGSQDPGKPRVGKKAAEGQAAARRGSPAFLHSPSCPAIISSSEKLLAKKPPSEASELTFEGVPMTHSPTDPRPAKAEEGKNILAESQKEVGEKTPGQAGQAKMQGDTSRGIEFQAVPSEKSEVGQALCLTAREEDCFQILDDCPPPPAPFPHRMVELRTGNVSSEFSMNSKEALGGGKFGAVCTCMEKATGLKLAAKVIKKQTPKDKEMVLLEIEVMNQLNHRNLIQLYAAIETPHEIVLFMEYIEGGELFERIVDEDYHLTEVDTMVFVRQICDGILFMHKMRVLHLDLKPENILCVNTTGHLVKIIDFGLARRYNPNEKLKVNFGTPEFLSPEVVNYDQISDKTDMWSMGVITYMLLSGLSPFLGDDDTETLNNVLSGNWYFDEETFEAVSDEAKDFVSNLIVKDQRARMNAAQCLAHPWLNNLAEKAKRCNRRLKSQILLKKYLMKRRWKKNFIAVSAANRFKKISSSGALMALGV

[8] = molecular target: MAP kinase-activated protein kinase 2 (Homo sapiens) (UniProt P49137); experiment: Inhibition of human MAPKAPK2 assessed as residual activity at 1 uM using RBER-CHKtide as substrate in presence of 33P-ATP by ProQinase assay relative to control
[9] = molecular target: Mitogen-activated protein kinase kinase kinase 3 (Homo sapiens) (UniProt Q99759); experiment: Inhibition of human MEKK3 assessed as residual activity at 1 uM using casein as substrate in presence of 33P-ATP by ProQinase assay relative to control
[10] = molecular target: Casein kinase I isoform gamma-3 (Homo sapiens) (UniProt Q9Y6M4); experiment: Inhibition of human CK1gamma3 assessed as residual activity at 1 uM using casein as substrate in presence of 33P-ATP by ProQinase assay relative to control
Chain of Casein kinase I isoform gamma-3 (Homo sapiens) (Q9Y6M4 whole entry, looked up, canonical isoform): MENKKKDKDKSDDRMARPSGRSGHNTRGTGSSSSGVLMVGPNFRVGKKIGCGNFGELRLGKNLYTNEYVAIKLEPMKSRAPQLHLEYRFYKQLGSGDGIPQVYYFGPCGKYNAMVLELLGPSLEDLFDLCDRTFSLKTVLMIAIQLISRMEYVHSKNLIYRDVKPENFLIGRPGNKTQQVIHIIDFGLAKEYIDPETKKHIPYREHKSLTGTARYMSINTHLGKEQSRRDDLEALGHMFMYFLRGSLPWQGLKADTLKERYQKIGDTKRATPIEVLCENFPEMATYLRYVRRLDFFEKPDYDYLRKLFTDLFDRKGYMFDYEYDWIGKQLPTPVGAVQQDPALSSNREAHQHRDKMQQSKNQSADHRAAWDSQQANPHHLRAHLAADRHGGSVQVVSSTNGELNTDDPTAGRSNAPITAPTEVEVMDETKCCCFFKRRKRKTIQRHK

[11] = molecular target: Serine/threonine-protein kinase tousled-like 1 (Homo sapiens) (UniProt Q9UKI8); experiment: Inhibition of TLK1 (unknown origin) assessed as remaining activity at 1 uM by Kinome scan method relative to control
Chain of Serine/threonine-protein kinase tousled-like 1 (Homo sapiens) (Q9UKI8 whole entry): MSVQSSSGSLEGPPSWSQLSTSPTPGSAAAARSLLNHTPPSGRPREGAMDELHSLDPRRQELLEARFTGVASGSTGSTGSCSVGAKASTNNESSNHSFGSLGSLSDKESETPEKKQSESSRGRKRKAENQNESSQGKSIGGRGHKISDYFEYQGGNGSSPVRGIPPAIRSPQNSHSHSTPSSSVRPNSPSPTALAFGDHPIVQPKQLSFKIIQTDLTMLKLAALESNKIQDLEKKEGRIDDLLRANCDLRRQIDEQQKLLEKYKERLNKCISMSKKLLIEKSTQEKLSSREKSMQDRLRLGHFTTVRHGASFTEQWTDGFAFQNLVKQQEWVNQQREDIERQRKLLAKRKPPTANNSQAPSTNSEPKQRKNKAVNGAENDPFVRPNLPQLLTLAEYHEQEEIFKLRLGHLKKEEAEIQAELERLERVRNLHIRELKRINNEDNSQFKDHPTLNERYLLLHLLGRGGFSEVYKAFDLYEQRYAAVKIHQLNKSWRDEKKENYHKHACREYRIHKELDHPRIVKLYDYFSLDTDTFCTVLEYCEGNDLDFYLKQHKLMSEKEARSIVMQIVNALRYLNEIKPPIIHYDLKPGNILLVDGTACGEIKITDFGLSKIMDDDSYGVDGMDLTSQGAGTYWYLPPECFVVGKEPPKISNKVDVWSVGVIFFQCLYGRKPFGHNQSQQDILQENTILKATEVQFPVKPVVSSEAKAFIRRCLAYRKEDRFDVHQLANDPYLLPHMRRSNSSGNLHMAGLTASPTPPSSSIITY

[12] = test system: Mus musculus; experiment: In vivo anti-inflammatory activity in Gal/LPS induced mouse assessed as TNF-alpha release at 3 mg/kg, po administered for 1 hrs; assay type: functional
[13] = test system: Proto-oncogene tyrosine-protein kinase receptor Ret (Homo sapiens), P07949 [Y791F]; experiment: Inhibition of human RET Y791F mutant assessed as residual activity at 1 uM using polyEY as substrate in presence of 33P-ATP by ProQinase assay relative to control
Chain of Proto-oncogene tyrosine-protein kinase receptor Ret (Homo sapiens), P07949 [Y791F] (P07949 whole entry Y791F): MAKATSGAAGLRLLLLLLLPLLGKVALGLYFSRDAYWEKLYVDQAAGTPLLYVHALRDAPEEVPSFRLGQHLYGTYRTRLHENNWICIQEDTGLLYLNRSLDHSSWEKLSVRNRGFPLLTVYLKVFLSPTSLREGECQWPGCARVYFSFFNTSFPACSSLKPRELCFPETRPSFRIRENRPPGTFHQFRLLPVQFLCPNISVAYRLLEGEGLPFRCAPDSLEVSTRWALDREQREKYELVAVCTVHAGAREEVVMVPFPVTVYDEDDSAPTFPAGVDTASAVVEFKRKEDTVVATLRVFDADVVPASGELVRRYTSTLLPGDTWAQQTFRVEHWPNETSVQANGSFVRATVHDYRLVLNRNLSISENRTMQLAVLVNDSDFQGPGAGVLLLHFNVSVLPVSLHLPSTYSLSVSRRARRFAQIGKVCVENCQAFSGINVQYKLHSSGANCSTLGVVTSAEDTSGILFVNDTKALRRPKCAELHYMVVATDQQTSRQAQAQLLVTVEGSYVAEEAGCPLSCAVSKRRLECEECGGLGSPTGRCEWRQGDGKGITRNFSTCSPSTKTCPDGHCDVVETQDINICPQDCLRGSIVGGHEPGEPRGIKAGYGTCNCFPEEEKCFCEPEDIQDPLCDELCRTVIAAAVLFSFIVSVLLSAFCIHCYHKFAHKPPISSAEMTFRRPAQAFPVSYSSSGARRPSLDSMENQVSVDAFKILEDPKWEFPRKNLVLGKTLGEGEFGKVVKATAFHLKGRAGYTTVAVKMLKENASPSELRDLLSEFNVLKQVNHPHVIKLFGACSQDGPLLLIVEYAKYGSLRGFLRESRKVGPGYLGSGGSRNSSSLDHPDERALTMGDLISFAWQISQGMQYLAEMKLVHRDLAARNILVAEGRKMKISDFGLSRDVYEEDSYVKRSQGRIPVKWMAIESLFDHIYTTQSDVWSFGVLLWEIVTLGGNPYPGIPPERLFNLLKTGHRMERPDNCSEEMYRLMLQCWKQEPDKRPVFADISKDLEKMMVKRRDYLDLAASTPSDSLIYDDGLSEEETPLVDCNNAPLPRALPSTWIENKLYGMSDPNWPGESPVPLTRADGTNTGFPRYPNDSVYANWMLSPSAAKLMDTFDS

[14] = molecular target: Tyrosine-protein kinase Fes/Fps (Homo sapiens) (UniProt P07332); experiment: Inhibition of FES (unknown origin) assessed as remaining activity at 1 uM by Kinome scan method relative to control
Chain of Tyrosine-protein kinase Fes/Fps (Homo sapiens) (P07332 whole entry): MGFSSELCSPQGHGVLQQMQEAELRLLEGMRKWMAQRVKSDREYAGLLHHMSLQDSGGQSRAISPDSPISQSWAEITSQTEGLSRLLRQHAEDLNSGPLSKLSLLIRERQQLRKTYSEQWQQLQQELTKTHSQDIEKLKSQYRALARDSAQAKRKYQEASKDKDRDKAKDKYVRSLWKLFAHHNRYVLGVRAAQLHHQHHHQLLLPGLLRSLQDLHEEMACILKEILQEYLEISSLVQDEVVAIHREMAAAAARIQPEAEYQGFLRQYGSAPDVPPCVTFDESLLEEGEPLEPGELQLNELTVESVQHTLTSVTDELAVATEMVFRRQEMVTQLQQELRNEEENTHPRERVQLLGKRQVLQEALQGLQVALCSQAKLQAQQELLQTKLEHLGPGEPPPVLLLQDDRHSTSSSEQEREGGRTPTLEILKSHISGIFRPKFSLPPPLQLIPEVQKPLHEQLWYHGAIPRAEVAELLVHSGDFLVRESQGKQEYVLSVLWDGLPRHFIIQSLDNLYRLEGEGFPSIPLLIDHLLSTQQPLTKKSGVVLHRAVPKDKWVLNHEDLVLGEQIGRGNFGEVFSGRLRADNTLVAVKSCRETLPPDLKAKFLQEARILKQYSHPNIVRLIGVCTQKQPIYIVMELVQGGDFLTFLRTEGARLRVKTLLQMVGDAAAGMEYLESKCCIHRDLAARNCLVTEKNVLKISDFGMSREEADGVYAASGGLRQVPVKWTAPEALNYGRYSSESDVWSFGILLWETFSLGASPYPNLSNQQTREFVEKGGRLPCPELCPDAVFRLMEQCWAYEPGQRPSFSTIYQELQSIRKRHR

[15] = molecular target: Calcium/calmodulin-dependent protein kinase kinase 1 (Homo sapiens) (UniProt Q8N5S9); experiment: Inhibition of CAMKK1 (unknown origin) assessed as remaining activity at 1 uM by Kinome scan method relative to control
[16] = molecular target: Calcium/calmodulin-dependent protein kinase type II subunit alpha (Homo sapiens) (UniProt Q9UQM7); experiment: Inhibition of human CAMK2A assessed as residual activity at 1 uM using RBER-CHKtide as substrate in presence of 33P-ATP by ProQinase assay relative to control
Chain of Calcium/calmodulin-dependent protein kinase type II subunit alpha (Homo sapiens) (Q9UQM7 whole entry): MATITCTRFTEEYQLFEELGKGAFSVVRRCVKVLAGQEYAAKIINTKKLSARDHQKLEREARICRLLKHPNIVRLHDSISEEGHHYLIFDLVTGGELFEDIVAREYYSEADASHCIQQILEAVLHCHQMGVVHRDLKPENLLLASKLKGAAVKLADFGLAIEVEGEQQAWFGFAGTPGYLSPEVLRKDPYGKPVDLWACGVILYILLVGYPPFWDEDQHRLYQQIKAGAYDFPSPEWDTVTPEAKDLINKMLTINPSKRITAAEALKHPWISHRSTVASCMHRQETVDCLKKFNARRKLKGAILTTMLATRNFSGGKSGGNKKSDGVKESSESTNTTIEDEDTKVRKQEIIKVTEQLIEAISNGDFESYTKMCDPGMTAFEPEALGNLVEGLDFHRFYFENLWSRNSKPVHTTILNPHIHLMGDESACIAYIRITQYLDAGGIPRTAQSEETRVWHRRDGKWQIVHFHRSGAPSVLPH

[17] = test system: Epidermal growth factor receptor (Homo sapiens), P00533 [UNDEFINED MUTATION]; experiment: Inhibition of EGFR L747-E749del/A750P mutant (unknown origin) assessed as remaining activity at 1 uM by Kinome scan method relative to control
[18] = molecular target: Receptor tyrosine-protein kinase erbB-2 (Homo sapiens) (UniProt P04626); experiment: Inhibition of human ERBB2 assessed as residual activity at 1 uM using polyEY as substrate in presence of 33P-ATP by ProQinase assay relative to control
[19] = molecular target: Ribosomal protein S6 kinase alpha-6 (Homo sapiens) (UniProt Q9UK32); experiment: Inhibition of C-terminal kinase domain RPS6KA6 (unknown origin) assessed as remaining activity at 1 uM by Kinome scan method relative to control
Chain of Ribosomal protein S6 kinase alpha-6 (Homo sapiens) (Q9UK32 whole entry, the tested form may be a part): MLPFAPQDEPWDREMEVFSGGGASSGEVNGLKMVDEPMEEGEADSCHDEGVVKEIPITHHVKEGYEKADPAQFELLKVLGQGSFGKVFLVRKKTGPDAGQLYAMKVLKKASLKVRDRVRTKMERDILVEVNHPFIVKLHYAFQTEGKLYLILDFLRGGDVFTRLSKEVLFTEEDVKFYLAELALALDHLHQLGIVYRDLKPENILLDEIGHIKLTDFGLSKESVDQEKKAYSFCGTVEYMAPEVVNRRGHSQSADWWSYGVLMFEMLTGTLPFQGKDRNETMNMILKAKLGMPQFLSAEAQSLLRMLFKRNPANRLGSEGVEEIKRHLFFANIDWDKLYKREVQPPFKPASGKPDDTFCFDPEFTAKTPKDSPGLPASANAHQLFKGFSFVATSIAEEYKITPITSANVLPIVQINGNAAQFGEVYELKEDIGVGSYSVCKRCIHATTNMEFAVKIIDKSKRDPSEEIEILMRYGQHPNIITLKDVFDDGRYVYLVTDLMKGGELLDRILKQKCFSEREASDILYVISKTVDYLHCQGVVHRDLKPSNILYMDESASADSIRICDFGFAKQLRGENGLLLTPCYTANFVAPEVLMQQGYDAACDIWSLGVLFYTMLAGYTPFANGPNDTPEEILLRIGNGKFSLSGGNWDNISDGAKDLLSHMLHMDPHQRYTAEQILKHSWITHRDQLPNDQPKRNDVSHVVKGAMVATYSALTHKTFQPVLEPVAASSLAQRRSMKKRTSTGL

Structure (SMILES): O=C1c2ccc(Nc3ccc(F)cc3F)cc2CCc2ccc(OC[C@H](O)CO)cc21 [Skepinone-L]
- Activity [1]: 102%
- Activity [2]: 95%
- Activity [3]: 100%
- Activity [4]: 62%
- Activity [5]: 86%
- Activity [6]: 89%
- Activity [7]: 92%
- Activity [8]: 80%
- Activity [9]: 96%
- Activity [10]: 95%
- Activity [11]: 100%
- Activity [12]: 36.3 pg/mL
- Activity [13]: 141%
- Activity [14]: 100%
- Activity [15]: 100%
- Activity [16]: 83%
- Activity [17]: 82%
- Activity [18]: 91%
- Activity [19]: 77%
